For 9 compounds, inhibition, Ki and type of inhibition results are on record in publication PMC12259978 (Scientific Reports, 2025).

Experiment [1] has as its target T1, tyrosinase (Agaricus bisporus, UniProt C7FF04). Briefly: Tyrosinase inhibitory assay. The experiment is classed as biochemical. Particulars: read-out: % inhibition of tyrosinase.
The target in experiment [2] is T1, tyrosinase. As to the kind of experiment: Enzyme kinetic study. Type of experiment: biochemical.

T1 sequence (C7FF04 whole entry): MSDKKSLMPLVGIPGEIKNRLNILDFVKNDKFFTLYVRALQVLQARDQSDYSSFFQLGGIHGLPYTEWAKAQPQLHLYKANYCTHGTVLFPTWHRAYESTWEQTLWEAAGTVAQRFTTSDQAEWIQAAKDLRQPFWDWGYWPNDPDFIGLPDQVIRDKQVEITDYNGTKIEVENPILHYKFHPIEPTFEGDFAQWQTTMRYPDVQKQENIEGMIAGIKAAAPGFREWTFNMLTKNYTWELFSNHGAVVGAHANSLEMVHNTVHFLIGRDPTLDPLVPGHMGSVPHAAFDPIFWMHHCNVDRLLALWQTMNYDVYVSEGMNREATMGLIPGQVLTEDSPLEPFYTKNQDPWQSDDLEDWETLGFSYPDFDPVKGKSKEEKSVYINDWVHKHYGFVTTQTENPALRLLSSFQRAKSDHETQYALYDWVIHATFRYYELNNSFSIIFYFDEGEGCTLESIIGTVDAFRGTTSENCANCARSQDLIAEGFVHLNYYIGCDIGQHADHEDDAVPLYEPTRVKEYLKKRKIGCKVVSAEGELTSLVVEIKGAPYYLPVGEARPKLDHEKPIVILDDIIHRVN

A word on the inhibition: it is how much of the control response was suppressed. As for `O=C(CSc1nc2ccccc2cc1C=Nn1c(S)nnc1-c1ccccc1)Nc1ccc(Cl)cc1Cl` [12e, N-(2,4-dichlorophenyl)-2-((3-(((3-mercapto-5-phenyl-4H-1,2,4-triazol-4-yl)imino)methyl)quinolin-2-yl)thio)acetamide], on tyrosinase [1], the inhibition at 50 µM came out at 48.3%. Still for that read-out and setting: the figure for `Cc1cccc(NC(=O)CSc2nc3ccccc3cc2C=Nn2c(S)nnc2-c2ccccc2)c1C` [12i, N-(2,3-dimethylphenyl)-2-((3-(((3-mercapto-5-phenyl-4H-1,2,4-triazol-4-yl)imino)methyl)quinolin-2-yl)thio)acetamide] is 43.8%; for `COc1ccc(NC(=O)CSc2nc3ccccc3cc2C=Nn2c(S)nnc2-c2ccccc2)cc1` [12f, 2-((3-(((3-Mercapto-5-phenyl-4H-1,2,4-triazol-4-yl)imino)methyl)quinolin-2-yl)thio)-N-(4-methoxyphenyl)acetamide] it is 40.9%; for `Cc1ccccc1NC(=O)CSc1nc2ccccc2cc1C=Nn1c(S)nnc1-c1ccccc1` [12h, 2-((3-(((3-Mercapto-5-phenyl-4H-1,2,4-triazol-4-yl)imino)methyl)quinolin-2-yl)thio)-N-(o-tolyl)acetamide] it is 46%. Still for that read-out and setting: under `O=C(CSc1nc2ccccc2cc1C=Nn1c(S)nnc1-c1ccccc1)Nc1ccc(Cl)cc1` [12d, N-(4-chlorophenyl)-2-((3-(((3-mercapto-5-phenyl-4H-1,2,4-triazol-4-yl)imino)methyl)quinolin-2-yl)thio)acetamide] stands 66%. In general, Ki refers to the dissociation constant of the complex between target and ligand, obtained from inhibition or displacement. A high value points to a looser hold on the target. `O=C(CSc1nc2ccccc2cc1C=Nn1c(S)nnc1-c1ccccc1)NCCc1ccccc1` [12j, 2-((3-(((3-Mercapto-5-phenyl-4H-1,2,4-triazol-4-yl)imino)methyl)quinolin-2-yl)thio)-N-phenethylacetamide] had a Ki at tyrosinase [2] of 9.06 µM. The type of inhibition result at tyrosinase [2] (Lineweaver-Burk plot, Vmax unchanged, Km increased) is listed as “competitive inhibitor”. Moreover, at tyrosinase [1], the inhibition at 50 µM was 86.6%.

On to `Cc1ccc(NC(=O)CSc2nc3ccccc3cc2C=Nn2c(S)nnc2-c2ccccc2)cc1` [12g, 2-((3-(((3-Mercapto-5-phenyl-4H-1,2,4-triazol-4-yl)imino)methyl)quinolin-2-yl)thio)-N-(p-tolyl)acetamide], for which the inhibition at 50 µM on tyrosinase [1] stood at 51.4%. The same measure, in the same setting: the figure for `O=C(CSc1nc2ccccc2cc1C=Nn1c(S)nnc1-c1ccccc1)Nc1ccccc1` [12a, 2-((3-(((3-mercapto-5-phenyl-4H-1,2,4-triazol-4-yl)imino)methyl)quinolin-2-yl)thio)-N-phenylacetamide] is 32.2%. Still for that read-out and setting: the figure for `O=C(CSc1nc2ccccc2cc1C=Nn1c(S)nnc1-c1ccccc1)Nc1ccccc1Cl` [12b, N-(2-chlorophenyl)-2-((3-(((3-mercapto-5-phenyl-4H-1,2,4-triazol-4-yl)imino)methyl)quinolin-2-yl)thio)acetamide] is 55.7%.
